Values quoted from earlier work in patent publication US20250177267A1, “A CLEANSING COMPOSITION” (Conopco, Inc., d/b/a UNILEVER, priority 2022, published 2025).

Conditions: prior art acids with pKa greater than 4.5

pKa: 4.72
Structure (SMILES): CCCCCC(=O)O [hexanoic acid]
